Experimental data reported in patent publication US12577255B2, “MDM2-based modulators of proteolysis and associated methods of use” (Arvinas Operations, Inc., priority 2015, dated 2026).

Assays:
p53 = experiment: Western blot of HCT116 cells, p53 level; assay type: cell-based, human; settings: Western blot (FIG. 2, FIG. 3)
[1] = test system: p53^WT HCT-116 colon cancer cell lines; experiment: Cell growth assay; assay type: cell-based, human; settings: p53^WT HCT-116 (FIG. 4)
MDM2 = molecular target: T1, MDM2 (Homo sapiens, UniProt Q00987); experiment: Western blot of HCT116 cells, MDM2 level; assay type: cell-based; settings: Western blot (FIG. 2, FIG. 3)
T1 construct: Western blot of HCT116 cells treated with chimeric molecules; endogenous in cells; host or cells: HCT116
T1 sequence (Q00987 whole entry): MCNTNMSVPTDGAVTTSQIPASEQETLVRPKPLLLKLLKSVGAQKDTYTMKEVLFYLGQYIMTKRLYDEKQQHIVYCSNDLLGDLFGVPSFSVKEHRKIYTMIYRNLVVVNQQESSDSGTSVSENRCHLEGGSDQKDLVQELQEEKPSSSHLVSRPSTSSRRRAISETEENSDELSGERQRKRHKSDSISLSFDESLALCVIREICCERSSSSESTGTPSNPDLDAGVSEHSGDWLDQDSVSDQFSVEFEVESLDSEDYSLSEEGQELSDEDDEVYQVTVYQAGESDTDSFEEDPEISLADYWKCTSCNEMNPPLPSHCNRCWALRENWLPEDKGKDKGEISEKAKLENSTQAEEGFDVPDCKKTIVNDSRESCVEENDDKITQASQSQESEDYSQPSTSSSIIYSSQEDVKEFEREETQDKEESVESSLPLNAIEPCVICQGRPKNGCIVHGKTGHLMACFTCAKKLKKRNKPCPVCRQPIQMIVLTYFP

BRD4 = BRD4 (Homo sapiens, UniProt O60885); experiment: Time course of BRD4 degradation in A549; assay type: cell-based; set-up: endogenous in cells; host or cells: A549; settings: human lung cancer cell line A549 (FIG. 6)
[2] = molecular target: T2, bromodomain-containing protein 4 (BRD4) (Homo sapiens, UniProt O60885); experiment: BRD4 Western blot (degradation); assay type: cell-based; settings: at 1 μM; VCaP cells, 16 h
T2 construct: VCaP cells were chased from ATCC and cultured in Dulbecco's Modified Eagle's Medium; host or cells: VCaP

MDM2 up-regulation (MDM2): up-regulation of MDM2 | BRD4 degradation, time course (BRD4): BRD4 degradation | Degradation activity BRD4 [2]: C (larger than 50% degradation at 1 μM)
SMILES: COc1cc(C(=O)NCCOCCOCCOCCOCCNC(=O)C[C@@H]2N=C(c3ccc(Cl)cc3)c3c(sc(C)c3C)-n3c(C)nnc32)ccc1NC(=O)[C@@H]1N[C@@H](CC(C)(C)C)[C@](C#N)(c2ccc(Cl)cc2F)[C@H]1c1cccc(Cl)c1F [Compound A1893, (2R,3S,4R,5S)-3-(3-chloro-2-fluorophenyl)-4-(4-chloro-2-fluorophenyl)-N-{4-[(14-{2-[(9S)-7-(4-chlorophenyl)-4,5,13-trimethyl-3-thia-1,8,11,12-tetraazatricyclo[8.3.0.0^2,^6]-trideca-2(6),4,7,10,12-pentaen-9-yl]acetamido}-3,6,9,12-tetraoxatetradecan-1-yl)carbamoyl]-2-methoxyphenyl}-4-cyano-5-(2,2-dimethylpropyl)pyrrolidine-2-carboxamide]
p53 level increase (p53): dose dependent p53 level increase | growth inhibition [1]: very potent growth inhibition
